The target in this assay is T1, human recombinant AKR1B1 (hAKR1B1) (Homo sapiens, UniProt P15121).
T1 construct: made in house
The assay can be described thus: Assay of aldose reductase: hAKR1B1-catalysed NADPH-dependent reduction of L-idose or HNE, decrease in absorbance at 340 nm. The class given is biochemical. The conditions noted are these: for IC50: 8 mU hAKR1B1, authentic standard; for K’i (ternary enzyme-substrate-inhibitor complex dissociation constant) / Ki: Hanes-Woolf analysis, mean ± SEM; for Ki: read-out: Ki (binary enzyme-inhibitor complex dissociation constant). The protocol: The AKR1B1 activity was determined at 37 °C as previously described, monitoring the decrease in absorbance at 340 nm linked to NADPH oxidation (ε340=6.22 mM^−1 cm^−1) through a Biochrom Libra S60 spectrophotometer. In a 0.25 M sodium phosphate buffer pH 6.8, the standard assay mixture contained 0.18 mM NADPH, 0.4 M ammonium sulphate, 0.5 mM EDTA and 4.7 mM GAL. One unit of enzyme activity is the amount that catalyses the conversion of 1 µmol of substrate/min in the above assay conditions. These assay conditions were also adopted to assess the effectiveness of inhibitors when L-idose or HNE were used, at the indicated concentrations, as substrates instead of GAL. Differential inhibition (DI) refers to the difference between the percentage inhibition observed using L-idose and HNE as substrates in the assay conditions indicated.
The human recombinant AKR1B1 (hAKR1B1) was expressed and purified to electrophoretic homogeneity as previously described. The purified enzyme (specific activity 5.3 U/mg) was stored at −80 °C in a 10 mM sodium phosphate buffer pH 7.0 containing 2 mM DTT and 30% (w/v) glycerol. Before use, the enzyme was extensively dialysed against a 10 mM sodium phosphate buffer pH 7.0.
The protein concentration was determined by the Coomassie blue staining method, using BSA as a standard protein. Statistical analysis was performed using the two-way ANOVA test carried out with Graphpad 6.0 software. IC50 determination was performed using standard statistical software (GraphPad Instat version 6.0, San Diego, CA). Results are reported as the mean of the values and the 95% confidence interval from at least three independent measurements.

Setting [1] is: substrate 0.04 mM HNE, read-out: IC50 for HNE reduction.
[2] abbreviates: substrate 0.8 mM L-idose, read-out: IC50 for L-idose reduction.

Read-outs that look alike come from different tables or passages of the source.

One may read the IC50 as the concentration needed to halve the response being measured. One may read the Ki as the equilibrium dissociation constant of an inhibitor or competing ligand from its target.

For the compound `CC1(C)C[C@@H](O)[C@]2(C)CC[C@]3(C)C(=CC[C@@H]4[C@@]5(C)CC[C@H](O[C@@H]6O[C@H](C(=O)O)[C@@H](O)[C@H](O)[C@H]6O[C@@H]6O[C@H](CO)[C@H](O)[C@H](O)[C@H]6O[C@@H]6O[C@H](CO)[C@@H](O)[C@H](O)[C@H]6O)[C@](C)(CO)[C@@H]5CC[C@]43C)[C@@H]2C1` [SSBa, soyasaponin Ba (V)], the IC50 runs as follows: under setting [1], 47 µM; under setting [2], 40 µM. For the same compound, the “K’i (ternary enzyme-substrate-inhibitor complex dissociation constant)” value is, setting by setting: (substrate HNE) 23 ± 4 µM; (substrate L-idose) 24 ± 2 µM. Moreover, the Ki by setting is: (substrate HNE) 65 ± 12 µM; (substrate L-idose) 66 ± 17 µM. Moreover, the inhibition model result by setting is: (with respect to HNE) “mixed inhibitor”; (with respect to L-idose) “mixed inhibitor”.
Consider `C[C@@H]1O[C@@H](O[C@H]2[C@H](O[C@H]3[C@H](O[C@H]4CC[C@@]5(C)[C@@H](CC[C@]6(C)[C@@H]5CC=C5[C@@H]7CC(C)(C)C[C@@H](O)[C@]7(C)CC[C@]56C)[C@@]4(C)CO)O[C@H](C(=O)O)[C@@H](O)[C@@H]3O)O[C@H](CO)[C@H](O)[C@@H]2O)[C@H](O)[C@H](O)[C@H]1O` [SSBb, soyasaponin Bb (I)], for which the IC50 runs as follows: under setting [1], 360 µM; under setting [2], 170 µM. For the same compound, the “K’i (ternary enzyme-substrate-inhibitor complex dissociation constant)” value reads like this: (substrate HNE) 248 ± 19 µM; (substrate L-idose) 191 ± 11 µM. The Ki (substrate L-idose) came out at 176 ± 35 µM. Further, the inhibition model entry reads like this: (with respect to HNE) “uncompetitive”; (with respect to L-idose) “purely non-competitive inhibitor”.
